Measurements as given in US4217271A, “Basic azo dyestuffs containing a n-picolinium alkylene amino phenyl group” (Imperial Chemical Industries Limited, priority 1977, dated 1980).

Test: Solubility in water (grams/100 ml) at 30, 60 and 90° C.
Assay type: physicochemical
Conditions: for Solubility in water: chloride anion

Solubility in water (30° C.): 2.5 grams/100 ml
Solubility in water (60° C.): 62 grams/100 ml
Solubility in water (90° C.): > 100 grams/100 ml
aqueous solubility compared with Basic Red 18:1 (both dyestuffs having a chloride anion): superior aqueous solubility
Structure (SMILES): CCN(CC[n+]1ccc(C)cc1)c1ccc(N=Nc2ccc([N+](=O)[O-])cc2Cl)cc1 [Example 1, 4-nitro-2-chloroaniline N-2-(N'-ethylanilino)-ethyl-4-methylpyridinium chloride]
